For one series, the system named is Ehrlich tumors. Conditions: experimental animals bearing Ehrlich tumors; cited from earlier work.
Series [1] can be described thus: Whole body retention (whole body counts after I.V. injection) in miniature pigs with melanotic lesions. Format: in vivo. Particulars: for % Whole Body Retention (24 hrs.): I.V., 1-2 mCi 153Sm, % = percentage of injected dose. Here is the method: (§1) Images (right lateral, left lateral and dorsal) were made at 4, 24, 48 and 72 hours.
Series [2] can be described thus: Bone and liver uptake scored from scintigraphic images of miniature pigs with melanotic lesions. Format: in vivo. The method, then:
as §1
(§2) 1--Slight uptake (negligible)
(§3) 2--Moderate uptake (intermediate )
(§4) 3--Definite uptake (high)
(§5) The average of the 3 investigators independent scores were used in the following table.

In series [3] the test system is naturally occurring melanotic lesions. Briefly: Tumor uptake scored from images of miniature pigs with naturally occurring melanotic lesions. Format: in vivo. Particulars: 24 hour images, average score of 3 investigators, scale 0-3. The method, then:
as §1, §2, §3, §4, §5

The conditions of series [4]: in vivo; cited from earlier work.
Setting [5] is: 24 hour images, average score of 3 investigators, scale 0-3.
Setting [6] is: Comparative Example A, in words.

“And” between values parts separate entries of the source, which are not always exact repeats. Equal values may be shown once.

On to `CN(CC(=O)O)CC(=O)O` [methyliminodiacetic acid (MIDA), methyliminodiacetic acid], for which the tumor imaging result in the series on Ehrlich tumors is “less effective”.

Regarding ^99m Tc-ethylenediaminediacetic acid, the tumor imaging result with Ehrlich tumors is “could be used to image tumors”.

As to `O=C(O)CN(CCN(CC(=O)O)CC(=O)O)CC(=O)O` [ethylenediaminetetraacetic acid (EDTA), ethylenediaminetetraacetic acid], the tumor imaging result in the series on Ehrlich tumors is on record as “less effective”.

Take `CC(=O)Nc1cc(CN(CC(=O)O)CC(=O)O)c(O)c(CN(CC(=O)O)CC(=O)O)c1.[153Sm+3]` [Example 4]: the “% Whole Body Retention (24 hrs.)” value in series [1] was 55.2% and 48.2%. Also, in series [2] (setting [5]), the “Bone Uptake” value is given as 1.67; the “Liver Uptake” value is 3.00 and 2.00. In addition, the “Tumor Uptake (Left carpus)” value in series [3] (Left carpus) worked out at 0.00. Further, in series [3], the “Tumor Uptake (Left stifle)” value is given as 0.00. Also, in series [3] (Right ear), the “Tumor Uptake (Right ear)” value is listed as 2.00.

For `O=C([O-])CC(O)(CC(=O)[O-])C(=O)[O-].[67Ga+3]` [^67 Ga-citrate, reference compound], the “clearance from extracellular fluid” value in series [1] (setting [6]) was “never cleared the extracellular fluid”. Further, the Liver Uptake result in series [2] (setting [6]) is given as “unacceptably large liver uptake”.

As for `CC(=O)Nc1cc(CN(CC(=O)O)CC(=O)O)c(O)c(CN(CC(=O)O)CC(=O)O)c1.[153Sm+3]` [Example 1], the “% Whole Body Retention (24 hrs.)” value in series [1] was 29.5% and 40.1%. For the same compound, in series [2] (setting [5]), the “Bone Uptake” value worked out at 3.00 and the “Liver Uptake” value amounted to 0.67. In addition, in series [3], the “Tumor Uptake (Dorsal neck)” value was found to be 3.00, the “Tumor Uptake (Left stifle)” value was 2.00, the “Tumor Uptake (Right head)” value stood at 0.67 and the “Tumor Uptake (Right thorax)” value is given as 2.00.

Consider `CC(=O)Nc1cc(CN(CC(=O)O)CC(=O)O)c(O)c(CN(CC(=O)O)CC(=O)O)c1.[153Sm+3]` [Example 3], for which the “% Whole Body Retention (24 hrs.)” value in series [1] was 42.9% and 37.1%. Further, in series [3] (Left sacrum), the “Tumor Uptake (Left sacrum)” value was found to be 3.00. In series [3] (Right nasal), the “Tumor Uptake (Right nasal)” value is listed as 2.00. The “Tumor Uptake (Right stifle)” value in series [3] (Right stifle) turned out to be 0.00.

With `CC(=O)Nc1ccc(O)c(CN(CC(=O)O)CC(=O)O)c1.[153Sm+3]` [Example 2], the “% Whole Body Retention (24 hrs.)” value in series [1] was 60.7% and 46.6%. In series [2] (setting [5]), the “Bone Uptake” value is 1.33 and 2.33; the “Liver Uptake” value is 2.00 and 1.00. For the same compound, in series [3], the “Tumor Uptake (Dorsal neck)” value is 3.00, the “Tumor Uptake (Left stifle)” value was found to be 2.00, the “Tumor Uptake (Right head)” value stood at 0.00 and the “Tumor Uptake (Right thorax)” value amounted to 0.00. Besides, in series [3] (draining node), the “Tumor Uptake (draining node)” value amounted to 0.00.

Regarding `O=C(O)CNCC(=O)O` [iminodiacetic acid (IDA), iminodiacetic acid], the tumor imaging result in the series with Ehrlich tumors was “less effective”.

In the case of `O=C([O-])CN(CCN(CC(=O)[O-])CC(=O)[O-])CCN(CC(=O)[O-])CC(=O)[O-].[99Tc+4]` [^99m Tc-DTPA], in series [4], the elimination route result is reported as “eliminated from the body by the kidneys into the urine” and the tissue localization result is recorded as “does not result in the radionuclide localizing in any tissue”.

In the case of `O=C(O)CN(CCO)CCN(CC(=O)O)CC(=O)O` [hydroxyethylethylenediaminetriacetic acid], in the series with Ehrlich tumors, the tumor imaging result is “less effective”.

As for `O=C(O)CN(CC(=O)O)CC(=O)O` [nitrilotriacetic acid (NTA), nitrilotriacetic acid], the tumor imaging entry with Ehrlich tumors is reported as “less effective”.

The values above are taken from patent US5342925A, “Radioactive compositions for soft tissue tumors” (priority 1991, dated 1994).
